Values joined by “and” are separate entries in the source; they are usually repeats but may differ in a detail not shown here. Equal values may be shown once.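 Five compound concentrations were applied to cells in 96-well plates for 48 hours; endpoints were derived by simple linear interpolation of the resulting dose-response curve. At the GI50, growth is halved. TGI marks complete inhibition of growth.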
How the values were obtained:
Test in all cases: growth of human tumour cells (NCI), 48 h
HOP-18 NSCLC = tested on: HOP-18 NSCLC
HT29 colon = tested on: HT29 colon
KM12 colon = tested on: KM12 colon
KM20L2 colon = tested on: KM20L2 colon
M19-MEL melanoma = tested on: M19-MEL melanoma
SNB-78 CNS = tested on: SNB-78 CNS
M14 melanoma = tested on: M14 melanoma
MDA-MB-435 = tested on: MDA-MB-435
PC-3 prostate = tested on: PC-3 prostate
BT-549 breast = tested on: BT-549 breast

Row | SMILES | TGI (HOP-18 NSCLC) | TGI (HT29 colon) | TGI (KM12 colon) | TGI (KM20L2 colon) | TGI (M19-MEL melanoma) | TGI (SNB-78 CNS) | TGI (M14 melanoma) | GI50 (MDA-MB-435) | TGI (MDA-MB-435) | TGI (PC-3 prostate) | TGI (BT-549 breast) | other results
1 | O=c1c(-c2ccccc2)c[nH]c2cc([N+](=O)[O-])c(/C(Cl)=C/c3ccccc3)cc12 | 23.1 µM | > 51.6 µM | 38.6 µM | > 54.3 µM | > 42.5 µM | > 27 µM | – | – | – | – | – | –
2 | C[Si](C)(C)C#C[I+]c1ccccc1 | > 100 µM | > 100 µM | > 100 µM | > 100 µM | 83.7 µM | > 100 µM | 85.9 µM | – | – | – | – | –
3 | COc1cc(-c2ccc(-c3ccc(C(=N)N)s3)s2)cc(OC)c1OC | – | – | – | – | – | – | – | 1.64 µM | 3.09 µM | – | – | –
4 | O=C(CCN1CCCC1)Nc1ccc2c(NCCCCc3ccccc3)c3ccccc3nc2c1 | – | – | 2.74 µM | – | – | – | – | 1.56 µM | 2.95 µM | 2.09 µM | – | GI50 (KM12 colon): 1.33 µM; GI50 (PC-3 prostate): 0.723 µM
5 | Cc1c2cc[n+](C)cc2c(C)c2c1[nH]c1ccc(O)cc12 | > 94.5 µM | > 81.1 µM | > 86.9 µM | > 100 µM | 48 µM | > 100 µM | 20.5 µM | – | > 100 µM | > 100 µM | 71.1 µM | –
6 | CCOC(=O)c1c(NC(=S)NCc2ccccc2)sc2c1CCN(C)C2 | – | > 100 µM | > 100 µM | – | – | – | > 100 µM | – | – | > 100 µM | > 100 µM | –
7 | Cc1c2cc[n+](C)cc2c(COC2OC(CO)C(O)C2O)c2c3ccccc3n(C)c12 (stereo not given) | > 100 µM | > 100 µM | > 100 µM | > 100 µM | > 100 µM | > 100 µM | – | – | – | – | – | –
8 | COc1cc2c(cc1-c1c(C)noc1C)ncc1nc(C3CCCCC3)n(C3CCC(OC(F)F)CC3)c12 (stereo not given) | – | – | > 100 µM | – | – | – | – | 2.14 µM | > 100 µM | – | – | GI50 (KM12 colon): 3.43 µM
9 | NC(=O)c1cc2ccccc2c(N=Nc2ccccc2)c1O | – | > 100 µM | > 100 µM | – | – | – | > 100 µM | – | > 100 µM | > 100 µM | > 100 µM | –
10 | CC(=O)OC1CC2(O)C(CCC3(C)C(c4ccc(=O)oc4)CCC32O)C2(C)CCC(O)C=C12 (stereo not given) | 0.075 µM and 0.436 µM | – | 0.213 µM and 0.676 µM | 0.191 µM and 0.187 µM | 0.187 µM and 0.111 µM | 0.47 µM and 0.0866 µM | – | – | – | – | – | GI50 (HOP-18 NSCLC): 0.0375 µM; GI50 (HT29 colon): 0.0592 µM; GI50 (KM12 colon): 0.033 µM and 0.0814 µM; GI50 (KM20L2 colon): 0.0375 µM; GI50 (M19-MEL melanoma): 0.0375 µM; GI50 (SNB-78 CNS): 0.0375 µM
11 | N#Cc1ccc(Nc2nc3nc[nH]c3c(=O)[nH]2)cc1 | – | > 100 µM | > 100 µM | – | – | – | > 100 µM | – | > 100 µM | > 100 µM | > 100 µM | –
12 | CC(=O)O[C@H]1C(=O)[C@]2(C)[C@@H](OC(=O)OCC(O)CO)C[C@H]3OC[C@@]3(OC(C)=O)[C@H]2[C@H](OC(=O)c2ccccc2)[C@]2(O)C[C@H](OC(=O)[C@H](O)[C@@H](NC(=O)c3ccccc3)c3ccccc3)C(C)=C1C2(C)C (stereo not given in full) | – | – | – | – | – | – | – | – | – | > 70.8 µM | 22.9 µM | –
13 | COc1cccc2c1C(=O)c1c(O)c3c(c(O)c1C2=O)C[C@@](O)(C(C)=O)C[C@@H]3OC1CC(N)C(O)C(C)O1 (stereo not given in full) | – | – | – | 2.86 µM and 1.45 µM and > 5.01 µM | – | 2.49 µM and 3.43 µM | – | 0.0877 µM | – | – | – | GI50 (BT-549 breast): 0.0482 µM; GI50 (HOP-18 NSCLC): > 5.01 µM; GI50 (HT29 colon): 0.0246 µM; GI50 (KM12 colon): 0.0443 µM; GI50 (M14 melanoma): 0.0487 µM; GI50 (M19-MEL melanoma): > 5.01 µM; GI50 (SNB-78 CNS): 0.184 µM
14 | CN1CCN(c2ccc3nc(-c4ccc(OCCCN5C(=O)c6cccc7cccc(c67)C5=O)cc4)[nH]c3c2)CC1 | – | – | – | – | – | – | – | – | – | 4.95 µM | 6.13 µM | GI50 (BT-549 breast): 2.66 µM; GI50 (PC-3 prostate): 2.04 µM
15 | CCP(=O)(CC)C(Cl)(Cl)C(=O)NC | – | > 100 µM | – | – | – | – | > 100 µM | – | > 100 µM | > 100 µM | – | –
16 | CC(C)(C)CC(C)(C)Cc1ccc(OCCOCC[N+](C)(C)Cc2ccccc2)cc1 | – | 3.1 µM | – | – | – | – | 2.88 µM | 1.33 µM | 2.66 µM | – | – | GI50 (HT29 colon): 1.5 µM; GI50 (M14 melanoma): 1.42 µM
